Patent US20080075730A1, “Methods and compositions for treating biofilms” (priority 2003, published 2008)
In brackets after ≈: the same amount, converted by molar mass. Like-named read-outs stand apart in the source and are kept apart here.

How the values were obtained:
Format in all cases: cell-based
[1] = test system: Pseudomonas aeruginosa PA14 SCV; test: MIC determination, planktonic cells shed from biofilms (MBEC P&G device); settings: for MIC: Pseudomonas aeruginosa, PA14, SCV, planktonic cells, OD650 after 72 h at 35° C., mean ± SD of four trials, read-out: MIC72 h
Description: (§1) Antimicrobial susceptibility testing. Antibiotic, metal and biocide susceptibility tests were performed. Antimicrobials were arranged into arrays in microtitre plates that typically consisted of serial two-fold dilutions along the rows of wells (the challenge plates). The first and last wells of every row were used as sterility and growth controls, respectively. […] Biofilms were rinsed with PBS (to remove loosely adherent planktonic cells) and inserted into the challenge plates. After exposure, biofilms were rinsed once in PBS and inserted into microtitre plates containing […] of recovery medium in each well (LB broth, 5 mM GSH, 5 mM L-cys, 1% v/v tween-20). These biofilms were disrupted into the recovery medium using a sonicator, and the recovered cells were serially diluted and plated for viable cell counting. Spot plates from these experiments were incubated for a minimum of 36 h at 35° C. before enumeration. Minimum inhibitory concentration (MIC) values were determined by reading the optical density at 650 nm (OD650) of challenge plates after 72 h at 35° C. using a THERMOmax microplate reader with SOFTMAX PRO data analysis software (Molecular Devices, Sunnyvale, Calif.).
(§2) For susceptibility testing, growth-curve data were used to calibrate incubation times to produce biofilms of similar cell density. […] In this model system, planktonic cells shed from the surface of biofilms served as the inoculum for MIC determinations.

[2] = test system: Pseudomonas aeruginosa PA14 gacS^−; test: as above; settings: for MIC: Pseudomonas aeruginosa, PA14, gacS^−, planktonic cells, OD650 after 72 h at 35° C., mean ± SD of four trials, read-out: MIC72 h
Description: as §1, §2

[3] = test system: Pseudomonas aeruginosa PA14 gacS^− biofilms; test: Frequency of SCV cells arising from 24-h biofilms exposed for 18 h; settings: in words
Description: In an alternative set of experiments, the frequency of SCV cells arising from 24-h biofilms of P. aeruginosa PA14 gacS was evaluated. Antibiotics were diluted from stock solutions into LB broth to obtain final concentrations of […]. These were arranged in triplicate in a micro-titre plate. Biofilms were incubated in these low concentrations of antibacterials for 18 h at 35° C. and 95% relative humidity. Goat and human serum were also assayed in this array, and were kind gifts from The Life and Environmental Sciences Animal Care Facility at the University of Calgary, Department of Biological Sciences. After exposure, biofilms were treated in a manner identical to that described above.
Frequency of phenotypic variation. During the course of susceptibility assays, the proportion of SCV cells recovered from biofilms after exposure to Ag^+ or H2O2 was increased relative to the corresponding growth controls. It was queried whether this may be true for other antimicrobial agents or growth conditions. An array of clinically used antibiotics, saline, and goat and human sera were examined for an ability to select for these SCVs from 24-h biofilms of P. aeruginosa PA14 gacS. Biofilms were exposed to these agents for 18 h and each assay was performed in triplicate. Viable cell counts were determined for each exposure condition, and log-survival was determined. The proportion of SCV cells in bacterial populations recovered from these exposure conditions was calculated as the mean of the proportions from each individual trial.

[4] = test system: Pseudomonas aeruginosa PA14 gacS^− biofilms; test: Biofilm susceptibility testing (viable cell counts, log-killing, MBEC99.9); settings: for Log-survival / No. of survivors / SCV frequency: LB broth; for Log-survival / No. of survivors / SCV frequency / MBEC99.9: 2 h exposure; for MBEC99.9: gacS^− biofilms, 3 log10 reduction in viable cells
Description: (§3) Biofilm formation. Biofilms were aerobically cultivated using the MBEC high-throughput (HTP) or Physiology and Genetics (P&G) device (Innovotech, Edmonton, Canada) as described in the manufacturer's instructions and by Ceri et al. (1999). To summarize, the parts of this batch culture apparatus were used in two ways. The top half of the plastic MBEC™-HTP device is a lid with 96 polystyrene pegs that also fits over a standard 96-well microtitre plate. For Biofilm growth, the bottom half was either (1) a corrugated trough that guided 22 mL of inoculum across the pegs when the device was placed on a rocker at 3.5 rocks per min (HTP format), or (2) a microtitre plate with […] of inoculum in each well that was placed on a gyrorotary shaker at 150 r.p.m. (P&G format). For either assay format, the inoculum was prepared to c. 10^7CFU/mL1 of the desired strain and the inoculated device was incubated at 35° C. and 95% relative humidity for the required time. Unless otherwise noted, all experiments utilized the MBEC P&G assay. Pegs from the devices were collected at specific time points for scanning electron microscopy and scanning confocal laser microscopy. Biofilm cell densities were evaluated by breaking pegs from the lid of the MBEC device with sterile pliers, rinsing the peg in PBS, and subsequent viable-cell counting as described above. PBS containing the […] surfactant Tween-20 (1% v/v) was used to assist in recovery of bacteria from the peg surfaces. Pegs were sonicated for 30 min in an Aquasonic model 250HT ultrasonic cleaner (VWR International, Mississauga, Canada). Samples of broth culture were collected at the same time points and viable cell counts were determined in a similar manner.
as §1, §2

[5] = test system: Pseudomonas aeruginosa PA14 SCV biofilms; test: as above; settings: for MBEC99.9: SCV biofilms, 2 h exposure, 3 log10 reduction in viable cells
Description: as §3, §1, §2

[6] = test system: Pseudomonas aeruginosa PA14 wild-type; test: microbe, parasite or virus in culture; settings: for MIC: Pseudomonas aeruginosa, read-out: MIC72 h
Description: as §1, §2

[7] = test system: Pseudomonas aeruginosa PA14 wild-type biofilms
Description: as §3, §1, §2

Structure (SMILES): O=C(O)c1cn(C2CC2)c2cc(N3CCNCC3)c(F)cc2c1=O [Ciprofloxacin]
- MIC [1]: 0.8 ± 0.4 µg/mL (≈ 2.41 µM)
- MIC [2]: 0.7 ± 0.3 µg/mL (≈ 2.11 µM)
- selection for SCVs / increase of the frequency of SCV cells compared with growth controls [3]: in no instances
- Log-survival ([4]; 0.16 μg mL^−1): −2.6 ± 0.8 log10 CFU peg^−1
- No. of survivors ([4]; 0.16 μg mL^−1): 2.4 ± 0.8 log10 CFU peg^−1
- SCV frequency ([4]; 0.16 μg mL^−1): 0%
- MBEC99.9 [4]: 0.12 ± 0.05 µg/mL
- MBEC99.9 [5]: 0.64 ± 0.45 µg/mL
- tolerance of SCV strain biofilms relative to the wild-type strain ([5]; ratio of MBEC99.9 values, SCV vs wild type): approximately four
- MIC ([6]; PA14, wild type, planktonic cells, OD650 after 72 h at 35° C., mean ± SD of four trials): 0.4 ± 0.2 µg/mL (≈ 1.21 µM)
- differences in planktonic cell susceptibility between the different strains ([6]; wild type vs gacS^− vs SCV, log2 difference or less): no significant differences
- MBEC99.9 ([7]; wild type biofilms, 2 h exposure, 3 log10 reduction in viable cells): 0.16 ± 0 µg/mL

Structure (SMILES): OO [H2O2, hydrogen peroxide]
- MIC [1]: 1880 µg/mL (≈ 55100 µM)
- planktonic cell susceptibility ([1]; planktonic PA14 SCV, by comparison, in words): highly resistant
- MIC [2]: 45 ± 16 µg/mL (≈ 1320 µM)
- planktonic cell susceptibility ([2]; planktonic PA14 gacS, in words): hypersensitive
- Log-survival ([4]; 30 μg mL^−1): −3.8 ± 1.1 log10 CFU peg^−1
- No. of survivors ([4]; 30 μg mL^−1): 1.2 ± 1.1 log10 CFU peg^−1
- SCV frequency ([4]; 30 μg mL^−1): 8%
- MBEC99.9 [4]: 22 ± 14 ppm
- proportion of SCV cells recovered from biofilms after exposure, relative to growth controls ([4]; susceptibility assays, in words): increased
- MBEC99.9 [5]: 293 ± 203 ppm
- biofilm survival at subMBEC99.9 concentrations relative to the wild-type strain ([5]; in words): increased survival
- MIC ([6]; PA14, 72 h): 938 µg/mL (≈ 27600 µM)
- MBEC99.9 [7]: 352 ± 135 ppm
